Reference: patent publication US6506707B1, “Herbicidal compositions containing plant essential oils and mixtures or blends thereof” (Ecosmart Technologies, Inc., priority 1999, dated 2003)

Key:
[1] = test system: greenhouse-grown cabbage leaves; test: Direct droplet bioassay on cabbage leaves (Examples 5 and 7); type: in vivo; conditions: applied in one microliter of methanol; for relative toxicity to cabbage leaves (ranking by EC50): individual oils; for EC50 (amount producing 50% of maximum effect): cabbage leaves
Protocol: Various plant essential oils were tested for toxicity (herbicidal action) against greenhouse-grown cabbage leaves. Individual oils were ranked for relative toxicity using the direct droplet bioassay on the cabbage leaves.
Various plant essential oils were tested for synergistic effects on the toxicity (herbicidal action) against greenhouse-grown cabbage leaves. Individual oils were ranked for relative toxicity using the direct droplet bioassay on the cabbage leaves, and compared to mixtures at different ratios. […]

dandelion = test: Direct droplet bioassay on dandelion (Example 6); type: in vivo; conditions: individual oils, applied in one microliter of methanol
Protocol: Various plant essential oils were tested for toxicity (herbicidal action) against dandelion. Individual oils were ranked for relative toxicity using the direct droplet bioassay on the dandelion. EC50 values (amount producing 50% of maximum effect) were recorded in micrograms (all applied in one microliter of methanol) and plotted on a graph for comparison.

Structure (SMILES) | relative toxicity to cabbage leaves (ranking by EC50) [1] | relative toxicity to dandelion (ranking by EC50) (dandelion) | EC50 (amount producing 50% of maximum effect) [1]
CC(C)=CCCC(C)CC=O (stereo not drawn) [citronellal, Citronellal] | most toxic | most toxic | 
COC(=O)c1ccccc1O [methyl salicylate, Methyl Salicylate] | most toxic | most toxic | 
Cc1ccc(C(C)C)c(O)c1 [white thymol, White Thymol] | most toxic | most toxic | 
O=C/C=C/c1ccccc1 [cinnamic aldehyde, Cinnamic Aldehyde] | most toxic | most toxic | 
CCC(=O)OCCc1ccccc1 [Phenethyl Propionate (PEP), Phenethyl Propionate] |  |  | 158.8 micrograms
C=CCc1ccc(O)c(OC)c1 [Eugenol] |  |  | 46.1 micrograms
CC12CCC(CC1)C(C)(C)O2 [cineole, Cineole] |  | most toxic | 
Cc1ccc(C(C)C)c(O)c1 [Thymol] |  |  | 10.7 micrograms
